Assays:
[1] = system: young and older postmenopausal women; assay: Autonomic (ganglionic) blockade with trimethaphan camsylate in young and older postmenopausal women: muscle sympathetic nerve activity, arterial pressure, total peripheral resistance; type: in vivo, human; conditions: during trimethaphan
Source text: (§1) FIG. 1 is a graph plotting muscle sympathetic nerve activity (MSNA; bursts/min) as measured using a microneurography technique for 24 humans. The dose indicates the amount of trimethaphan in mg/min it took to abolish the sympathetic nerve bursts. The MSNA bursts per minute is the amount of sympathetic bursts that occurred at baseline, prior to drug infusion.
(§2) FIG. 2 is a graph plotting the same dose of trimethaphan in mg/min compared to the difference in mean arterial pressure (MAP) between baseline and at the final trimethaphan dose.
The effect of ganglionic blockade on arterial blood pressure and how this relates to baseline muscle sympathetic nerve activity in 12 young (25±1 years) and 12 older postmenopausal (61±2 years) women were examined. The women were studied before and during autonomic blockade using trimethaphan camsylate. At baseline, muscle sympathetic nerve activity burst frequency and burst incidence were higher in the older women (33±3 versus 15±1 bursts/min; 57±5 versus 25±2 bursts/100 heartbeats, respectively; P<0.05). Muscle sympathetic nerve activity bursts were abolished by trimethaphan within minutes (e.g., between about 6 and about 35 minutes). […] Baseline muscle sympathetic nerve activity was associated with the decrease in mean arterial pressure during trimethaphan (r=−0.74; P<0.05). See, also, Barnes et al., Hypertension, 63:303-308 (2014).

[2] = system: healthy humans; assay: Brief escalating infusion of trimethaphan camsylate with non-invasive beat-to-beat arterial pressure measurement to distinguish high and low sympathetic activity individuals; type: in vivo, human; conditions: infusion 1-4 mg/minute for 5-10 minutes, 24 healthy humans
Source text: as §1, §2
Both normal human subjects and patients with diseases such as resistant hypertension can have very wide ranges of baseline sympathetic activity. The following was developed to distinguish those individuals with high levels of baseline sympathetic activity from individuals with lower levels of baseline sympathetic activity. Trimethaphan camsylate, a ganglionic blocking drug, was administered (e.g., by infusion) at 1-4 mg/minute for 5-10 minutes to 24 healthy humans, while non-invasive beat-to-beat measurements of arterial pressure were made. […] The relationship between the fall in blood pressure and baseline sympathetic activity in a group of about 20-30 healthy women ranging in age from their early 20's to their later 60's was determined (FIGS. 1 and 2). Similar data were obtained using healthy men. […]

[3] = older postmenopausal women (61±2 years, n=12), P<0.01 versus young

O=C1N(Cc2ccccc2)C2C[S+]3CCCC3C2N1Cc1ccccc1 (stereo not drawn) [trimethaphan, trimethaphan camsylate]
Muscle sympathetic nerve activity bursts ([1]; 12 young and 12 older postmenopausal women): abolished | decrease in mean arterial pressure [1, 3]: −29±2 mm Hg | decrease in total peripheral resistance [1, 3]: −10±1 mm Hg/L per minute | decrease in mean arterial pressure ([1]; young women (25±1 years, n=12)): −9±2 mm Hg | decrease in total peripheral resistance ([1]; young women (25±1 years, n=12)): −5±1 mm Hg/L per minute | fall in blood pressure during brief escalating doses [2]: directly related to baseline sympathetic activity
